Measurements published in patent US20260193254A1, “2-OXOQUINAZOLINE CRYSTALLINE FORMS” (IDEAYA Biosciences, Inc., priority 2022, published 2026).
Converted amounts (≈) assume the structure as drawn.

Experiments:
Type in all cases: physicochemical
[1] = Water activity study; conditions: acetonitrile/water system, 5° C. and 25° C.
From the text: These solvent mixtures were saturated with the compound of Formula (I) before addition of the polymorph seeds. […] These solvent mixtures were saturated with the compound of Formula (I) before addition of the polymorph seeds. Obtained suspension was filtered. Solid part (wet cake) was investigated by XRPD.

[2] = Competitive equilibration experiments; conditions: 25° C. and 50° C.
Description: These solvents were saturated with the compound of Formula (I) before addition of the polymorph seeds. Obtained suspension was stirred at 25° C. or 50° C. for 5 days. Solid part (wet cake) was isolated by filtration and investigated by XRPD.

[3] = Bulk stability of crystalline forms; conditions: for Purity, Bulk (HPLC): Solid state
From the text: (§1) Solids obtained after bulk stability study were characterized by XRPD and HPLC.

[4] = Equilibrium solubility in FeSSIF and FaSSIF; conditions: for solubility at 24 h: 37 °C, thermodynamic from solid, target concentration 1 mg/mL, HPLC method 1 or 2 (footnote); for impurity in solubility sample: no unit printed for impurity (column head mg/mL)
Description: (§2) Solid part and liquid part were separated by filtration. Solubility was measured by HPLC. Solid part (wet cake) was investigated by XRPD.

[5] = Equilibrium solubility in SGF (pH 2.0), 0.1 N HCl (pH 1.2) and phosphate buffer (pH 8.0); conditions: for Solubility: target concentration 1 mg/mL, HPLC method 2
Description: as §2

[6] = Intrinsic dissolution rate (IDR) evaluation in FaSSIF; conditions: FaSSIF at 37° C.
Description: Only one surface of the pellet was exposed (surface area=0.50 cm^2) to 900 mL FaSSIF, the dissolution medium. Temperature of chamber medium was set as 37±0.5° C. Shaft rotation as 100 rpm and sampling time points as 2 min, 5 min, 10 min, 15 min, 20 min, 25 min, 30 min, 35 min, 40 min, 50 min, 60 min, and 120 min. 2 mL sample solution was withdrawn at each time point and centrifuged at 14,000 rpm for 5 min to isolate supernatant. Then concentration of the supernatant was analyzed by HPLC. After 120 min, XRPD of disc surface was measured.

[7] = Bulk stability of crystalline forms; set-up: key: Color A: All No change of color; conditions: Solid state
From the text: as §1

[8] = 25° C./92% RH, open container, 1 week
[9] = 25° C./92% RH, open container, 2 weeks
[10] = 40° C./75% RH, open container, 1 week
[11] = 40° C./75% RH, open container, 2 weeks
[12] = 60° C., tight container, 1 week
[13] = 60° C., tight container, 2 weeks
[14] = FaSSIF, pH 6.5, 37° C., 24 hours
[15] = FeSSIF, pH 5.0, 37° C., 24 hours
[16] = pH 1.2 (0.1N HCl), 37° C., 24 hours
[17] = pH 8 (phosphate buffer), 37° C., 24 hours

For `Nc1nc(=O)n(-c2ccccc2Cl)c2nc(C(F)(F)F)ccc12` [Form A, 4-Amino-1-(2-chlorophenyl)-7-(trifluoromethyl)pyrido[2,3-d]pyrimidin-2(1H)-one], the “form obtained in water activity experiments (relative stability of Forms A, C, D and E)” value [1] was “highly crystalline Form A was obtained in all the solvent mixtures”, the “form obtained in competitive equilibration experiments (relative stability of Form A and Form I)” value [2] was “Form A were obtained from all the experiments” and the “Purity, Bulk (HPLC)” value [3, 8] was 99.0%. For the same compound, the “Purity, Bulk (HPLC)” value [3, 9] was 99.2%, the “Purity, Bulk (HPLC)” value [3, 10] was 99.0% and the “Purity, Bulk (HPLC)” value [3, 11] was 99.1%. For the same compound, the “Purity, Bulk (HPLC)” value [3, 12] was 99.1%, the “Purity, Bulk (HPLC)” value [3, 13] was 99.2% and the Initial purity ([3]; before stress, HPLC) was 99.0%. For the same compound, the “chemical stability and physical stability (bulk stability)” value ([3]; stressed under 25° C./92 RH, 40% C/75% RH and 60° C., XRPD and HPLC) was “good chemical stability and physical stability”, the solubility at 24 h ([4]; FaSSIF, pH 6.5, fassif, pH 6.5, 37° C.) was 90 µg/mL (≈ 264 µM) and the “XRPD of solid after solubility test” value [4, 14] was “Form A + NaCl”. The “final pH” value [4, 14] was 6.5, the “impurity in solubility sample” value [4, 14] was “no impurity” and the solubility at 24 h ([4]; FeSSIF, pH 5, fessif, pH 5.0, 37° C.) was 240 µg/mL (≈ 704 µM). For the same compound, the “final pH” value [4, 15] was 5.0, the “impurity in solubility sample” value [4, 15] was “no impurity” and the “form obtained from the solubility study in 0.1 N HCl solution” value ([5]; 0.1 N HCl) was “Form R”. For the same compound, the “XRPD pattern after the solubility test in 0.1 N HCl and SGF” value ([5]; 37° C., 24 hours) was “two new patterns were obtained”, the “form obtained from the solubility study in simulated gastric fluid” value ([5]; SGF, pH 2.0) was “Form Q” and the “XRPD of solid after solubility test” value ([5]; SGF, pH 2.0, 37° C., 24 hours) was “Form Q”. The “final pH” value ([5]; SGF, pH 2.0, 37° C., 24 hours) was 2.2, the Solubility ([5]; SGF, pH 2.0, 37° C., 24 hours) was 60 µg/mL (≈ 176 µM) and the “XRPD of solid after solubility test” value [5, 16] was “Form R”. The “final pH” value [5, 16] was 1.3, the Solubility [5, 16] was 100 µg/mL (≈ 294 µM) and the “XRPD of solid after solubility test” value [5, 17] was “Form A”. For the same compound, the “final pH” value [5, 17] was 8.0, the “impurity in solubility sample” value [5, 17] was “no impurity” and the Solubility [5, 17] was 30 µg/mL (≈ 88.1 µM). For the same compound, the “XRPD after IDR” value ([6]; disc surface after 120 min) was “No form change”, the “Concentration detected during IDR test (Comments)” value ([6]; for Form V and Form A remains same during the whole process, LOQ for Form T and amorphous form) was “(0.006 mg/mL)” and the Color [7, 8] was “A”. The Color [7, 9] was “A”, the Color [7, 10] was “A” and the Color [7, 11] was “A”. For the same compound, the Color [7, 12] was “A” and the Color [7, 13] was “A”.
